Source: a melting point compilation (Tetko et al.; mined from patent text by program, amines drawn as free bases though some values may be those of a salt)

| SMILES | melting point |
| --- | --- |
| COC(=O)C(C)(C)c1ccc2c(c1)c(=O)[nH]c(=O)n2CCCCBr | 164 to 165 °C |
| Cc1ccc(S(=O)(=O)N2[C@@H](c3ncon3)CC[C@H]2c2ccc(F)cc2)cc1 (racemic) | 165 °C |
| COC1CCCn2c1nc(C)c(CCN1CCC(c3noc4cc(F)ccc34)CC1)c2=O (centres undefined) | 131 °C |
| CSc1ccc(-c2nn(CC3CC3)c(=S)cc2-c2ccc(F)cc2)cc1 | 136 °C |
| CC1(C)COP(N(C2CC(C)(C)NC(C)(C)C2)C2CC(C)(C)NC(C)(C)C2)OC1 | 156 °C |
| N#CCNCCNCC#N | 41 to 42 °C |
| CC(=O)OCC1OC(n2c3ccccc3c3c4c(c5c6cccnc6[nH]c5c32)C(=O)N(CO)C4=O)C(OC(C)=O)C(OC(C)=O)C1OC(C)=O (centres undefined) | 264 to 266 °C |
| CCCCNc1c(C(=O)OCC)cnc2c1c(C)nc1cc(C)nn12 | 114 to 116 °C |
| COc1ccc(C(=O)c2c(F)cccc2F)cc1 | 122 to 124 °C |
| C#CCNC(=O)c1ccc(C(=O)OC)cc1 | 152 to 153 °C |
| N=C(NC=Cc1ccc([N+](=O)[O-])cc1)c1cccc(N)c1 | 146 to 148 °C |
| CC(C)CN1CCCCC1C(=O)Nc1cc(C(F)(F)F)ccc1-c1cc(Oc2cccc3[nH]c(=O)c(N)nc23)ncn1 (centres undefined) | > 250 °C |
| COC(=O)NC1(Cl)C=CC=CN1CC(COc1cccc2ccccc12)OC(=O)OC (centres undefined) | 133 to 135 °C |
| OC(CN1CCN(C(c2ccccc2)c2ccccc2)CC1)c1ccc(OCc2ccccc2)cc1 (centres undefined) | 129 °C |
| FC(F)(F)c1ccc2c(c1)N(C1=CCCN1C1=NCCC1)c1ccccc1O2 | 140 to 142 °C |
| O=C(OCCn1ccnc1)C(O)c1ccccc1 (centres undefined) | 131 to 132 °C |
| O=C(Cc1ccccc1Cl)Nc1ccc(C(=O)N2Cc3cccn3Cc3ccccc32)cc1 | 99 to 103 °C |
| CCCCOc1cc2cc(CO)c(CO)c(-c3ccnc(Cl)c3)c2cc1OC | 93 to 97 °C |
| Cc1ccccc1N1CCc2c(N)nc3c(C)cccc3c21 | 173 to 174 °C |
| O=C(N(CCN(C(=O)C(F)(F)F)c1cccc2[nH]cc(Cl)c12)Cc1ccccc1)C(F)(F)F | 139 to 142 °C |
| COC(=O)c1ccc2c(c1)C=CC(=O)CO2 | 89 to 93 °C |
| COCCCn1nnnc1-c1cc(Br)c(OCc2ccccc2)cc1OCc1ccccc1 | 92 to 93 °C |
| COc1cccc2c1nc(C(F)F)n2-c1nc(Nc2ccc(F)nc2)nc(N2CCOCC2)n1 | 261 to 263 °C |
| CNC(Cc1ccccc1NC(=O)C(C)(C)C)c1ccccc1C (centres undefined) | 77 to 79 °C |
| O=C(O)Cc1ccccc1OCc1ccc(OCc2csc(-c3ccccc3)n2)cc1 | 115 to 116 °C |

| SMILES | melting point |
| --- | --- |
| CCOC(=O)N[C@@H]1CCc2ccccc2[C@H]1Cl (relative stereo) | 124 to 126 °C |
| CNCc1cccc(NC(=O)c2c[nH]c3c2C(=O)CCC3)c1 | 130 to 132 °C |
| COc1sc(-c2ccc(NS(=O)(=O)c3sc4ccc(F)cc4c3C)c(S(C)(=O)=O)c2)nc1C | 216 to 217 °C |
| CN(C)C1=CC(=NS(=O)(=O)c2cccs2)c2ccccc2C1=O | 183 to 185 °C |
| CCCCCNC(=O)N(C)c1cccc(-c2ccc(C=C(OCC)C(=O)O)cc2OCCCC)c1 | 59 °C |
| COC(=O)n1cc(C)c2c(OCc3ccccc3)c(OC)ccc21 | 124 °C |
| CCS(=O)(=O)c1c(Cl)nc(Cl)nc1Cl | 135 to 136 °C |
| O=C(O)C(=O)Nc1ccc2[nH]c(=O)oc2c1 | 254 °C |
| Cc1onc(NS(=O)(=O)c2cc(-c3ncccn3)ccc2-c2ccccc2CN(C)C(=O)CC(C)(C)C)c1C | 120 to 128 °C |
| C=CCNc1nc(NC(=O)NC(C)(C)C)c2cc([N+](=O)[O-])ccc2n1 | 200 to 201 °C |
| COC(=O)c1ccc(CBr)c(N(C)C(=O)OC)c1 | 99 to 102 °C |
| CC(C(=O)c1ccc2[nH]ccc2c1)N1CCC(O)(c2ccccc2)CC1 (centres undefined) | 60 to 70 °C |
| CC1CC(=O)C(C(=O)c2ccc(S(C)(=O)=O)cc2[N+](=O)[O-])C(=O)C1(C)C (centres undefined) | 166 to 167 °C |
| O=Cc1ccc2c(n1)C(=O)C(NC(=O)CCl)=CC2=O | 190 to 192 °C |
| NS(=O)(=O)c1ccc(NN=C2C(=O)Nc3ccc(C(=O)NCCO)cc32)cc1 | > 230 °C |
| Cc1nnc2n1-c1sc(CC(=O)N3CCOCC3)cc1C(c1ccccc1Cl)=NC2 | 143 to 144 °C |
| CCCC(CCC)n1c(CC)nc2c1c(=O)n(C)c(=O)n2-c1ccc(Cl)cc1Cl | 185 to 186 °C |
| CC(C)(C)C(=O)SC1CCN(C(C(=O)C2CC2)c2ccccc2F)CC1 (centres undefined) | 88 to 89 °C |
| COc1cc(-c2ccc(O)c(C3(C)CCCCC3)c2)cc(CC2SC(N3CCOCC3)=NC2=O)c1O (centres undefined) | 221 to 223 °C |
| COC(=O)c1c(N)c2ccccc2[nH]c1=O | 236 °C |
| CCCCNc1ccc(-c2cc3ccccc3o2)cc1 | 113 to 115 °C |
| CC(C)(C)OC(=O)NCCCN1CCC(CCCCNC(N)=NC(=O)c2nc(Cl)c(N)nc2N)CC1 | 98 to 102 °C |
| CCN(CC)C(=O)c1cc(-c2ccccc2)c2occc2c1 | 56 °C |
| Cc1ccc(Nc2c(N)cc(C(=O)O)cc2S(N)(=O)=O)c(C)c1 | 241 to 242 °C |
| Cc1cc(SCC#Cc2ccccc2)ccc1OCC(=O)O | 90 to 92 °C |

| SMILES | melting point |
| --- | --- |
| CC(C)(C)c1cc(C(=O)c2ccc(C(=O)O)s2)cc(C(C)(C)C)c1O | 228 to 230 °C |
| COC(=O)c1c(S(=O)C(C)C)c2cc(OC)ccc2n1C (centres undefined) | 130 to 134 °C |
| Ic1ccc2c3c(cccc13)C(=NCc1ccccc1)N2 | 160 to 163 °C |
| O=C(Nc1cccc2[nH]ccc12)c1ccccc1OCCCCl | 140 °C |
| CC(C)(C)Nc1cc(Cl)nc(N2CCCC2)n1 | 148 to 150 °C |
| CCOC(=O)CNc1c(C)cccc1[N+](=O)[O-] | 49 to 52 °C |
| COc1ccc(C2SCc3c(sc(N)c3C(=O)c3cccs3)S2)cc1 (centres undefined) | 138 to 140 °C |
| CCNC(=O)c1ccccc1[Si](C)(C)C | 64 to 66 °C |
| CC(=O)OCc1nc2cc3c(cc2c(=O)n1COC(=O)C(C)(C)C)C(=O)CC3 | 144 °C |
| CCC(CC)N(C)c1cc(C(=O)OC)ccc1N1C(=O)CCC1(CO)CO | 142 to 143 °C |
| CCOC(=O)c1cc2cccc(N(C)S(=O)(=O)c3nccn3C)c2[nH]1 | 120 °C |
| CCCCCCCCCCCCOc1ccc([N+](=O)[O-])cc1 | 51.5 to 53 °C |
| N=C(N)NCCCc1nccs1 | 160 to 163 °C |
| CN(C)CCCC(=O)Cc1ccc2c(c1)Cc1cccnc1O2 | 76 to 78 °C |
| N#Cc1ccc(N2CCC(F)(F)C2)c2ccccc12 | 68 to 69 °C |
| O=C(O)C1C=C(c2ccccc2)CC1 (centres undefined) | 122 to 124 °C |
| CC(C)(C)OC(=O)N(O)C(=O)CCN | 85 to 87 °C |
| c1ccc(OCCSCc2nnc(-c3ccc4[nH]ccc4c3)o2)cc1 | 130 to 132 °C |
| CCCCCCCCCCOc1ccc(O)c2ccccc12 | 89 to 90 °C |
| CN(C)CCOc1ccc(-c2n[nH]c3ncccc23)cc1 | 132 to 134 °C |
| CCC(C)(C)OC(=O)NC(C)(Cc1c[nH]c2ccccc12)C(=O)NCCc1ccc(OC)cc1 (centres undefined) | 128 to 130 °C |
| Cc1cc([N+](=O)[O-])ccc1N1CCN(C(=O)OC(C)(C)C)CC1 | 122 to 123 °C |
| COc1ccc(C)c(Nc2c(C#N)cnc3c2C=C2N=C(NCCN4CCOCC4)N=C2C3)c1 | 148 to 150 °C |
| CC1(C)CN(Cc2cc3ncccc3o2)c2nc(-c3ccncc3)cc(=O)n2C1 | 170 to 171 °C |
| O=S(=O)(NCCCCOc1ccc(-n2ccnc2)cc1)c1ccc(Br)cc1 | 134 to 136 °C |

| SMILES | melting point |
| --- | --- |
| NC(=O)CCCCCCCCCCC(Cl)(Cl)C(=O)O | 93 to 94 °C |
| CS(=O)(=O)c1ccc(-c2cc(C(=O)CCCO[N+](=O)[O-])nn2-c2ccc(F)cc2)cc1 | 134 to 136 °C |
| ClCC=C(c1ccc(Br)cc1)c1cccnc1 | 156 to 159 °C |
| O=C1c2ccccc2C(=O)N1OCc1ccc(F)c(Oc2ccccc2)c1 | 88.2 °C |
| CC1=C(C)C(F)N(c2ccc(Cl)c(Cl)c2)C1=O (centres undefined) | 102 to 103 °C |
| CCc1nn(-c2ccccc2)nc1/C(C#N)=C(\OC(=O)C(C)(C)C)c1c(C)c(C)nn1C | 119 °C |
| Cc1cnccc1Nn1ccc2ccccc21 | 78 to 80 °C |
| C=CCCC(C#N)(C#N)Cc1ccc(OC(F)(F)C(F)F)cc1 | 60.5 °C |
| CCc1nn(Cc2ccccn2)c2c(=O)[nH]c(-c3cc(S(C)(=O)=O)ccc3OCCOC)nc12 | 166 to 167 °C |
| CC(C)c1nn(-c2ccc(C(F)(F)F)cn2)cc1CO | 119 to 120 °C |
| CCOC(=O)C=Cc1ccc(OCCN(C)c2ccccn2)cc1 | 80 to 81 °C |
| CCOC(=O)C1=C(C)Nc2nc(N3CCOCC3)nc(N3CCOCC3)c2C1c1c(F)c(F)c(F)c(F)c1F (centres undefined) | 195 °C |
| COC(=O)CC(c1ccc(C)cc1)N1C(=O)c2ccccc2C1=O (centres undefined) | 97 to 99 °C |
| CS(=O)(=O)c1ccc(-c2oc3ccccc3c(=O)c2-c2ccccn2)cc1 | 203 to 204 °C |
| COC(=O)Cc1ccccc1OCc1ccccc1 | 74 to 75 °C |
| O=C(NCCCCC(NC(=O)OCC1c2ccccc2-c2ccccc21)C(=O)Oc1c(F)c(F)c(F)c(F)c1F)OCC1c2ccccc2Oc2ccccc21 (centres undefined) | 150 to 152 °C |
| COC(=O)N(c1cc(C)ccc1C#N)C(C)C | 100 to 101 °C |
| CC(=O)OC1CSC(Oc2cc(-c3cccnc3)ccc2Cl)C(OC(C)=O)C1OC(C)=O (centres undefined) | 155 °C |
| O=Cc1ccc(-c2ccc(O)cc2)c2ccoc12 | 184 to 185 °C |
| Nc1sc(-c2cccc(F)c2)c(CN(C2CCCCC2)C2CCCCC2)c1C(=O)c1ccc(Cl)cc1 | 205 to 207 °C |
| CN1C(=O)C(c2ccc(OC(F)F)cc2)(c2cccc(C3CC(=O)C3)c2)N=C1N (centres undefined) | 68 to 70 °C |
| COc1ccc(CNc2n[nH]c3ncnc(Nc4cccc(Cl)c4)c23)cc1O | 225 to 227 °C |
| CCCCCCOc1ccc(C(=O)NCCC(C)(C)C)cn1 | 75 to 76.5 °C |
| CN1CCC(c2cccc(C(F)(F)F)c2)(C(C)(C)O)CC1 | 111 to 112 °C |
